From ChEMBL document CHEMBL1147566, “Novel halogenated nitrobenzylthioinosine analogs as es nucleoside transporter inhibitors” (Bioorg Med Chem Lett, 2004)

These compounds were tested against T1, Equilibrative nucleoside transporter 1 (Homo sapiens, UniProt Q99808) (assay: Displacement of 5-(SAENTA)-X8-fluorescein from K562 cell nucleoside transporter).
T1 sequence (Q99808 whole entry): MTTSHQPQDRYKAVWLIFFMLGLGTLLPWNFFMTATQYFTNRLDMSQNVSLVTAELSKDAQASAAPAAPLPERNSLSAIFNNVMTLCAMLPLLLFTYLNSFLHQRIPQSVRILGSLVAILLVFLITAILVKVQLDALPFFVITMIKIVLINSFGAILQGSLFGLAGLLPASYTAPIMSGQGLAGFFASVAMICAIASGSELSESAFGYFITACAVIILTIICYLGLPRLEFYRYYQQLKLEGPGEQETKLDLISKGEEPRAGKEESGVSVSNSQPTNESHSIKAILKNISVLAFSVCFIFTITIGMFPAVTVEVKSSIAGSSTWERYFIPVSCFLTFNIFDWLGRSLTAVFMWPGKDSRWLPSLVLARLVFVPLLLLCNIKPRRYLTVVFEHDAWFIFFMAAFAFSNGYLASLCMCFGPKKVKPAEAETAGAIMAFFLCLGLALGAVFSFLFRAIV
Assay type: cell-based

Ki [nM] | Compound
99.5 | OC[C@H]1O[C@@H](n2cnc3c(SCc4ccccc4Cl)ncnc32)[C@H](O)[C@@H]1O
9.02 | OC[C@H]1O[C@@H](n2cnc3c(SCc4ccc(F)cc4)ncnc32)[C@H](O)[C@@H]1O
9.98 | OC[C@H]1O[C@@H](n2cnc3c(SCc4ccc(Br)cc4)ncnc32)[C@H](O)[C@@H]1O
16 | OC[C@H]1O[C@@H](n2cnc3c(SCc4cccc(Cl)c4)ncnc32)[C@H](O)[C@@H]1O
13.8 | OC[C@H]1O[C@@H](n2cnc3c(SCc4cccc(I)c4)ncnc32)[C@H](O)[C@@H]1O
134 | OC[C@H]1O[C@@H](n2cnc3c(SCc4ccccc4Br)ncnc32)[C@H](O)[C@@H]1O
20.5 | OC[C@H]1O[C@@H](n2cnc3c(SCc4cccc(Br)c4)ncnc32)[C@H](O)[C@@H]1O
3.88 | OC[C@H]1O[C@@H](n2cnc3c(SCc4ccc(I)cc4)ncnc32)[C@H](O)[C@@H]1O
16.1 | OC[C@H]1O[C@@H](n2cnc3c(SCc4ccccc4I)ncnc32)[C@H](O)[C@@H]1O
11.2 | OC[C@H]1O[C@@H](n2cnc3c(SCc4cccc(F)c4)ncnc32)[C@H](O)[C@@H]1O
19.9 | OC[C@H]1O[C@@H](n2cnc3c(SCc4ccccc4F)ncnc32)[C@H](O)[C@@H]1O
14.2 | OC[C@H]1O[C@@H](n2cnc3c(SCc4ccc(Cl)cc4)ncnc32)[C@H](O)[C@@H]1O
